# Data from patent publication US20240158408A1, “Nitrogen-Containing Heterocyclic Compound, Pharmaceutical Compositions thereof and Use thereof” (280 Bio, Inc., priority 2022, published 2024).
# Biological target: PI3Kα (Homo sapiens (Human), UniProt P42336)
# Assay: ADP-Glo Kinase Assay, PI3Kα enzyme activity inhibition
# Conditions: ADP-Glo; ATP 25 μM; PIP2 50 μg/mL; 1 hour at room temperature
# Chain of PI3Kα (P42336 whole entry): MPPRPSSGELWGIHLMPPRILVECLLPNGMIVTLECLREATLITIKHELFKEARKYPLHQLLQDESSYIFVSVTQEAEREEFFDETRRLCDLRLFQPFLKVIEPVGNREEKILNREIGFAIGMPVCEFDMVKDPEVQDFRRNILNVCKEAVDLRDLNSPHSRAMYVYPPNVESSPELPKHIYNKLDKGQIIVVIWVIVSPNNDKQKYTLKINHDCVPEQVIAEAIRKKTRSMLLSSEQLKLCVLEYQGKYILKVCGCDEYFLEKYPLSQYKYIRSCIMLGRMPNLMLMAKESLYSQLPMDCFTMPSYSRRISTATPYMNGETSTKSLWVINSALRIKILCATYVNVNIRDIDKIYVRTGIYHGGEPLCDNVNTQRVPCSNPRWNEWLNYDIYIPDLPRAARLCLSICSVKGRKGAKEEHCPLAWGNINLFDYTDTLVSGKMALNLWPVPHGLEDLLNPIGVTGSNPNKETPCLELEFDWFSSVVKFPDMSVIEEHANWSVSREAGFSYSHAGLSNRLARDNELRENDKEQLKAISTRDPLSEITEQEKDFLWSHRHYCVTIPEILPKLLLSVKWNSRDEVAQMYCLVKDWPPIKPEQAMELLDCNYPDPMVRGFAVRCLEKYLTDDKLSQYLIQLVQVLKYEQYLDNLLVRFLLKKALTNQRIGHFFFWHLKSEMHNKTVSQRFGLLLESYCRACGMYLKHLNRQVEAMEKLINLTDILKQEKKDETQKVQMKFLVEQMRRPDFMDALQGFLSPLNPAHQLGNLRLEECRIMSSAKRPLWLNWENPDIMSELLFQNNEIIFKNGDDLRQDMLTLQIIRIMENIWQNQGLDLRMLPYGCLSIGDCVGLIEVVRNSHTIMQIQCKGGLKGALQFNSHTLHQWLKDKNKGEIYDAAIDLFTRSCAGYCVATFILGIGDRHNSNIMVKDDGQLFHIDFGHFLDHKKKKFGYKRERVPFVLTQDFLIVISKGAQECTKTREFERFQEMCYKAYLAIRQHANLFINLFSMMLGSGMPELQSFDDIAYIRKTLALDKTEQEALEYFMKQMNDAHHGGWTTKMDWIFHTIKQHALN
# Chain of PI3Kα (P27986 whole entry partner): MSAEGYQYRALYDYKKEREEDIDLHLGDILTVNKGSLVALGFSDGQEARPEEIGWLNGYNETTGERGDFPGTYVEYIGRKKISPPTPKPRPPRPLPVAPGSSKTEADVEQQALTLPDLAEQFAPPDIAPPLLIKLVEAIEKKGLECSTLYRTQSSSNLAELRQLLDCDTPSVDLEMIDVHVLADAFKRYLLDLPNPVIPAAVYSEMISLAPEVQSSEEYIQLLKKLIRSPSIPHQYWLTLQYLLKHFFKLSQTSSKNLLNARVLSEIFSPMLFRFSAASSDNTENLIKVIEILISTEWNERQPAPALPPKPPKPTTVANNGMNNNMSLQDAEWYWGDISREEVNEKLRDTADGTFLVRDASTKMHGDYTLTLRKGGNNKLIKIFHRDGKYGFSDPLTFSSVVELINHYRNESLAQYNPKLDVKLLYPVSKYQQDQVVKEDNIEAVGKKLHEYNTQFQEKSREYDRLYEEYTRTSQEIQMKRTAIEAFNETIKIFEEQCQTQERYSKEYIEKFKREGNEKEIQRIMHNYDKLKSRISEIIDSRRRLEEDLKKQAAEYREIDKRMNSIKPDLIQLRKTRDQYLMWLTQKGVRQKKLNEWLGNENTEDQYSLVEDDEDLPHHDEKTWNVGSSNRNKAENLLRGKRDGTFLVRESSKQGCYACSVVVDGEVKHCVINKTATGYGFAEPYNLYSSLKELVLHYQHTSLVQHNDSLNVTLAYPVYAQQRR
row,PI3Kaα IC50,SMILES
1,++ (++ represents 250 nM<IC50<=10 μM),O=C(Nc1cc(Nc2cnn(C3CCOCC3)c2)c2c3c1C(c1cc(F)ccc1Cl)NC(=O)N3CC2)c1cc(F)cc(C(F)(F)F)c1 (stereo not drawn) [YL023]
2,++ (++ represents 250 nM<IC50<=10 μM),O=C1NC(c2cc(F)ccc2Cl)c2c(Nc3nccc4c(C(F)(F)F)cc(F)cc34)cc(Br)c3c2N1CC3 (stereo not drawn) [YL042]
3,++ (++ represents 250 nM<IC50<=10 μM),Cc1nc[nH]c1-c1cc(NC(=O)c2cc(F)cc(C(F)(F)F)c2)c2c3c1CCN3C(=O)NC2c1cc(F)ccc1Cl (stereo not drawn) [YL068]
4,++ (++ represents 250 nM<IC50<=10 μM),[N-]=[N+]=Nc1cc(NC(=O)c2cc(F)cc(C(F)(F)F)c2)c2c3c1CCN3C(=O)NC2c1cc(F)ccc1Cl (stereo not drawn) [YL011]

# Same assay, conditions: PI3Kaα IC50, ADP-Glo; ATP 25 μM; PIP2 50 μg/mL; 1 hour at room temperature
row,IC50,SMILES
1,> 10 µM,"N#Cc1cc(NC(=O)c2cc(F)cc(C(F)(F)F)c2)c2c3c1CCN3C(=O)NC2c1cc(Cl)ccc1Cl (single isomer, unassigned) [YL101-P1]"
2,> 10 µM,N#Cc1c(-c2cc(NC(=O)c3cc(F)cc(C(F)(F)F)c3)c3c4c2CCN4C(=O)NC3c2cc(F)ccc2Cl)cc(F)c2ncnn12 (stereo not drawn) [YL149]
